Drawing on patent publication US20250360218A1, “MITOCHONDRIA-TARGETING CANCER THERAPEUTIC COMPOSITION” (Seoul National University R&DB Foundation, priority 2022, published 2025), this text covers Ki for 1 compound.

The target in this experiment is TSPO (Homo sapiens, UniProt P30536). The experiment can be described thus: protein binding capacity for TSPO. The procedure: In order to find the conjugation position of IR780, a photosensitizer according to Example of the present invention, and an imidazopyridine derivative, a molecular docking simulation was performed. […] Accordingly, the compound of the present invention, a compound targeting mitochondria in cancer cells, was designed and synthesized so that IR780 was introduced by selecting a position (position Y in FIG. 1B) where steric hindrance is not expected, and then its protein binding capacity was measured.
TSPO, sequence (P30536 whole entry): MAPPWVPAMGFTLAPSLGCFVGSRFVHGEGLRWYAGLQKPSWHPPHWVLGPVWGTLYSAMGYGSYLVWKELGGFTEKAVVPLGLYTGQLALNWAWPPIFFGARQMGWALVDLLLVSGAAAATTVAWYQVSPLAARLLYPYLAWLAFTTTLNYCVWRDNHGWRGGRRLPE

On to `CCCN(CCC)C(=O)Cc1c(-c2ccc(Cl)cc2)nc2c(NC(=S)Nc3ccc(SC4=C(/C=C/C5=[N+](CCC)c6ccccc6C5(C)C)CCC/C4=C\C=C4\N(CCC)c5ccccc5C4(C)C)cc3)cccn12`, for which the affinity corresponds to a Ki of 201 nM. This lies in the sub-micromolar range.
